The values that follow come from patent US20230134935A1, “MEDICAL USE OF DARIDOREXANT” (Idorsia Pharmaceuticals Ltd, priority 2020, published 2023).

Series [1] concerns subjects with insomnia disorder. The following applies: cited from earlier work; for visual analog scales (VASs) on morning sleepiness, daytime alertness, and daytime ability to function: compared with placebo at week 2, higher doses, not sustained at week 4.
The test system of series [2] is animal model of agitation. The following applies: in vivo; cited from earlier work.
For series [3], the system named is adult and elderly subjects with insomnia disorder. In words: Phase 3 double-blind placebo-controlled polysomnography study, Example A (NCT03545191), 25 mg and 50 mg. The series is classed as in vivo, human. Particulars: for IDSIQ sleepiness domain score: month 1 and month 3. The method, then:
(§1) Daridorexant entered two phase 3 multi-center, double-blind, randomized, placebo-controlled, parallel-group, polysomnography study to assess the efficacy and safety of ACT-541468 in adult and elderly subjects with insomnia disorder. (NCT03545191, EudraCT Number: 2017-004642-20 testing strengths of 25 mg and 50 mg; and NCT03575104, EudraCT Number: 2017-004643-20 testing strengths of 10 mg and 25 mg). To assess daytime functioning, said phase 3 studies investigate as a secondary endpoint the IDSIQ sleepiness domain score, using as a dedicated patient reported outcome (PRO) instrument the Insomnia Daytime Symptoms and Impacts Questionnaire (IDSIQ) (S. Hudgens et al., The Patient—Patient-Centered Outcomes Research (2021) 14:249-268). The instrument is based on the Daytime Insomnia Symptom Scale (DISS) (Buysse et al., Sleep Medicine 8 (2007) 198-208; Buysse et al., SLEEP 29(9) (2006) 1155-1173) and designed to characterize and compare daytime symptoms in insomnia. The IDSIQ is structured in three domains (alertness/cognition; (negative) mood; tiredness/sleepiness) and contains overall 14 items, each based on an 11-point numeric rating scale. For each domain score the total rating score of all associated items is considered.
Example A): Multi-Center, Double-Blind, Randomized, Placebo-Controlled, Parallelgroup, Polysomnography Study to Assess the Efficacy and Safety of ACT-541468 in Adult and Elderly Subjects with Insomnia Disorder
The study comprises the following 3 phases: the screening phase, the treatment phase, and the safety follow-up phase. The screening phase starts with the signature of the informed consent form at Visit 1 and ends at Randomization (Visit 4), provided the subject fulfills all the eligibility criteria. It includes the Screening period and the Run-in period. The screening phase lasts […]. The Screening period starts with Visit 1 and ends at Visit 2. During the Screening period, the investigator verifies eligibility criteria and eligible subjects perform a one-night polysomnography (PSG) assessment. The Screening period lasts 7 to 18 days to allow time to perform all required procedures at Visit 1, the PSG assessment and collect the minimum number of eDiary entries (i.e., 7 days) between Visit 1 and Visit 2. The Run-in period starts with Visit 2 and ends at Randomization (i.e., Visit 4). At Visit 2 eligible subjects are allocated a single-blinded placebo treatment that is taken daily. During the Run-in period subjects come to the site for Visit 3, which consists of 2 PSG nights and is performed when the subject has completed the eDiary for at least 7 days and eligibility is confirmed. The Run-in period lasts 13 to 24 days, to allow collection of the minimum number of eDiary entries (i.e., 7 days), perform 2 PSG nights at Visit 3, and receive the eligibility confirmation from the PSG central reader. The double-blind (DB) treatment phase lasts 3 months. It starts at Randomization (Visit 4). DB study treatment is taken daily. A safety telephone call is performed at Visit 5 to collect information about adverse events (AEs) and concomitant medications. Sleep parameters of each subject are objectively assessed with 2 consecutive PSG nights at Visit 6 and Visit 8. A safety visit without PSG night is performed at Visit 7. An eDiary is completed every day during the treatment phase. End-of-Double-Blind-Treatment (EODBT) is reached in the second morning of Visit 8. The safety follow-up phase starts after EODBT. It consists of a single-blind placebo run-out period of 7 days and a safety follow-up period. The Run-out period starts in the evening of Visit 9. Visit 9 consists of one PSG night on single-blind placebo treatment. Visit 9 is followed by 6 days at home with single-blind placebo treatment. The eDiary is completed every day during the Run-out period. The end of the Run-out period (End-of-Treatment [EOT]) is reached after all visit assessments have been performed at Visit 10. […]

The next series deals with rat. Particulars: cited from earlier work.
In series [4] the test system is adult and elderly subjects with insomnia disorder. As to the kind of experiment: Phase 3 double-blind placebo-controlled polysomnography study, Example B (NCT03575104), 10 mg and 25 mg. It counts as in vivo, human. As to the method: as §1
Example B): Multi-Center, Double-Blind, Randomized, Placebo-Controlled, Parallelgroup, Polysomnography Study to Assess the Efficacy and Safety of ACT-541468 in Adult and Elderly Subjects with Insomnia Disorder
The study (NCT03575104) is conducted in analogy to the study of Example A), using daridorexant strengths of 10 mg and 25 mg.

For series [5] the following is noted: in vivo; cited from earlier work.
[6] abbreviates: 25 mg and 50 mg once daily in the evening, Month 1 and Month 3, vs placebo.
The mark [7] stands for this setting: both doses (25 mg, 50 mg), all timepoints, vs placebo.
Where [8] appears, read: 10 mg, month 1 and month 3, vs placebo.
The mark [9] stands for this setting: 25 mg, month 1 and month 3, vs placebo.

Structures are written as SMILES. Entries after “also recorded” stand apart in the source; their conditions may differ.

With `COc1ccc(-n2nccn2)c(C(=O)N2CCC[C@@]2(C)c2nc3c(C)c(Cl)ccc3[nH]2)c1` [daridorexant, [(S)-2-(5-Chloro-4-methyl-1H-benzoimidazol-2-yl)-2-methyl-pyrrolidin-1-yl]-(5-methoxy-2-[1,2,3]triazol-2-yl-phenyl)-methanone], in series [1] (any dose vs placebo), the “morning sleepiness (sleepiness the following day)” value is on record as “no difference”. Also, the “visual analog scales (VASs) on morning sleepiness, daytime alertness, and daytime ability to function” value in series [1] is recorded as “nonsignificant increases”. Moreover, in series [1] (phase 2, subjects with insomnia disorder), the “wake time after sleep onset” value was “dose-dependent reduction”. In addition, the “next-morning residual drug effects” value in series [1] (up to and including the highest dose (50 mg)) was “absence of such effects”. In addition, the “activity in animal model of agitation” value in series [2] was “active”. In addition, in series [3] (setting [6]), the “change from baseline in LPS (latency to persistent sleep, sleep onset)” value is reported as “significant reductions”; the “change from baseline in WASO (wake time after sleep onset, sleep maintenance)” value was “significant reductions”; the “change from baseline in subjective total sleep time (sTST)” value is listed as “increased the subjective total sleep time (sTST) significantly”. Further, the incidence of somnolence entry in series [3] (25 mg and 50 mg vs placebo) was “low (lower with daridorexant 50 mg versus placebo) and not dose dependent”. Moreover, in series [3] (25 mg, vs placebo), the “IDSIQ sleepiness domain score” value is listed as “numerical trend; also recorded: numerical improvement”. In series [3] (50 mg dose group compared to placebo), the falls result is on record as “Fewer falls”. The “IDSIQ sleepiness domain score” value in series [3] (50 mg, vs placebo) is “significantly improved”. Also, in series [3] (3 months of treatment), the “daytime functioning over time” value is reported as “gradual improvement” and the “improvements in sleep (WASO, LPS, sTST) over time” value was “maintained over 3 months; also recorded: maintained over three months”. Moreover, the “tolerability / safety profile” value in series [3] (adult and elderly patients) is on record as “well tolerated”. Also, in series [3] (setting [7]), the “IDSIQ alert/cognition domain score” value was “decreased; also recorded: improved”, the “IDSIQ mood domain score” value is recorded as “decreased; also recorded: improved” and the IDSIQ total score entry is given as “decreased; also recorded: improved”. In addition, in series [3] (both treatment doses vs placebo), the “rate of adverse events” value is “comparable between placebo and daridorexant”. Further, in series [3] (every morning), the “next-morning sleepiness effect assessed by visual analog scale (VAS)” value is “no next-morning sleepiness effect”. For the same compound, in series [3] (in vivo), the “most frequent treatment-emergent adverse events (TEAEs)” value is “nasophyringitis and headache”; the “suicide, suicidal ideation, or self-injury” value is “no suicide, suicidal ideation, or self-injury”. In series [3] (placebo group compared to daridorexant treatment groups), the “number of serious adverse events” value is “higher in the placebo group”. Moreover, the “rebound insomnia or withdrawal symptoms upon discontinuation” value in series [3] (upon discontinuation) was “no rebound insomnia, or withdrawal symptoms”. In the series on rat, the “crossing of the blood-brain barrier” value is “cross the blood-brain barrier” and the “sleep promotion (effects on active wake, home cage activity, NREM sleep, REM sleep)” value was “promote sleep”. In addition, in series [4] (setting [8]), the WASO entry is “not” and the sTST result is reported as “not”. Further, the IDSIQ sleepiness domain entry in series [4] (25 mg, both time points) is on record as “numerical trend”. Besides, the LPS after log-transformation entry in series [4] (25 mg, month 1 and month 3) is “significantly reduced; also recorded: significant after log-transformation”. In series [4] (setting [9]), the WASO result was “significantly decreased” and the sTST entry was “increased”. For the same compound, the “decrease in LPS” value in series [4] (25 mg, vs placebo, without log-transformation) was “did not reach statistical significance”.

Take `Cc1ccc(-c2nc3ccc(C)cn3c2CC(=O)N(C)C)cc1` [zolpidem, reference compound]: the “visual analog scales (VASs) on morning sleepiness, daytime alertness, and daytime ability to function” value in series [1] was “pattern was also true”.

As for `Cc1ccc(-n2nccn2)c(C(=O)N2CCN(c3nc4cc(Cl)ccc4o3)CC[C@H]2C)c1` [suvorexant], in series [5], the “halflife (t½)” value is 12 h.
